Measurements as given in PMC9032718, “Eltrombopag as an Allosteric Inhibitor of the METTL3-14 Complex Affecting the m^6A Methylation of RNA in Acute Myeloid Leukemia Cells” (Pharmaceuticals, 2022).

How the values were obtained:
[1] = biological target: T1, METTL3 (Homo sapiens, UniProt Q86U44); assay: Bioluminescence enzyme assay, single form of METTL3; assay type: biochemical; details: 1 μM METTL3, 1 μM SAM, 500 nM RNA, 5 h; read-out: IC50, single subunit enzyme form of METTL3
T1 construct: 10x His (thrombin-cleavable); made in house; host or cells: insect cells, baculovirus (pVL1393)
Description: An enzymatic bioluminescence assay was established to identify the METTL3-14 inhibitor through screening. […] METTL3-14 activity was assessed by measuring the luminescence using a Victor multilabel reader (PerkinElmer, Waltham, MA, USA). The IC50 values were calculated by a nonlinear regression analysis using OriginPro 9.1 software (OriginLab).
To confirm the mechanism of action of eltrombopag in the METTL3-14 complex, 30 nM METTL3-14 and serially diluted eltrombopag were reacted with various concentrations of SAM or RNA substrate and saturating concentrations of the other substrate (3 μM SAM or 2 μM RNA substrate) for 20 min. To evaluate the inhibitory activity in a single form of METTL3 and METTL14, 1 μM of METTL3 and 300 nM of METTL14 were incubated with 1 μM of SAM, 500 nM of RNA substrates, and serially diluted eltrombopag for 5 h. To measure the inhibitory activity in the truncated form of the METTL3-14 complex, 1 μM of the truncated METTL3-14 complex was reacted with 1 μM of SAM, 500 nM of RNA substrates, and serially diluted eltrombopag for 5 h.

[2] = parameters: method as in PMID 34225039; details: cited from earlier work
[3] = system: MOLM-13 cells; assay: Anti-proliferative assay (EZ-cytox), MOLM-13; assay type: cell-based; details: Homo sapiens, MOLM-13, 72 h
Description: The MOLM-13, MOLM-14, HL60, MV4-11, and THP-1 cells were seeded in white 96-well clear bottomed plates with 100 μL of medium (5000 cells/well). The plated cells were treated with serially diluted compounds and incubated for 72 h at 37 °C. After incubation, 10 μL of EZ-cytox kit reagent from the EZ-cytox cell viability assay kit (DaeiLab, Seoul, Korea) was added to each well and then incubated for 3 h at 37 °C. The absorbance of metabolically active cells was measured at a wavelength of 450 nm using a Victor multilabel reader (PerkinElmer). The GI50 values were calculated by nonlinear regression analysis using OriginPro 9.1 software (OriginLab).

[4] = system: m^6A methylation of MOLM-13 transcriptome; assay: m^6A-seq and sequencing data analysis (differential methylation peaks, motifs, annotation, GO enrichment); assay type: cell-based, human
Description: mRNA was purified using a GenElute™ mRNA Miniprep Kit (SIGMA, MRN10-1KT, St. Louis, MO, USA) according to the manufacturer’s protocol. Briefly, the total RNA was mixed with 2× Binding Solution and oligo(dT) beads, vortexed, and left for 10 min at room temperature. The beads:mRNA complex was passed through a GenElute spin filter/collection tube and washed twice with Wash Solution. The mRNA was eluted in an Elution Solution incubated at 70 °C.
m^6A-seq was performed using the EpiMark® N^6-Methyladenosine Enrichment Kit (NEB, E1610S). Briefly, 25 μL of Dynabeads™ Protein G (Invitrogen, 10004D) and 1 μL of N^6-Methyladenosine Antibody were incubated in a 4 °C rotator for 2 h. The purified mRNA was fragmented at 95 °C for 10 min in a fragmentation buffer (100 mM Tris (pH 8.0), 8 mM MgCl2) with spike-in control RNA (m^6A and unmodified, 0.1 fmol of each RNA). The fragmented RNA was concentrated with RNA Clean & Concentrator™-5 (ZYMO […], R1014, Irvine, CA, USA) and then 5% was saved as the input. The remaining 95% of the fragmented RNA was added to the beads/antibody complex. RNA was eluted in Buffer RLT (QIAGEN, 79216, Hilden, Germany), followed by ethanol precipitation and was used for sequencing library construction. All sequencing experiments were performed in triplicate via Novaseq. Adapter trimming and QC were performed using Trim Galore. Reads were mapped to hg38 by HISAT2 [56], and exomePeak and HOMER [58] were used to analyze the differential methylation peaks, motifs, and gene annotations.

[5] = biological target: T2, METTL3-14 complex (Homo sapiens, UniProt Q86U44); assay: Surface plasmon resonance binding to METTL3-14; details: SPR
T2 construct: genes encoding the full-length and MTase domain of human METTL3; METTL3-14 FL: full length of METTL3-14; 10x His (thrombin-cleavable) (cleaved yes); made in house; host or cells: Trichoplusia ni (Hi5) cells co-infected with two baculoviruses (virus made in Sf9)
Description: The interaction between eltrombopag and the METTL3-14 complex was explored using a Reichert […] instrument optical biosensor (Reichert Technologies, Depew, NY, USA) equipped with a carboxymethyl dextran sensor chip (part no. 13206066, Reichert Technologies). To activate the sensor chip, free carboxyl groups on the surface were modified by injecting a mixture of 0.1 M of 1-ethyl-3-(3-dimethylaminopropyl) carbodiimide hydrochloride and 0.05 M of N-hydroxysuccinimide at a flow rate of 10 μL/min to generate a reactive succinimide ester surface. […] The binding experiments were performed using a flow rate of 30 μL/min with an association time of 5 min and a dissociation time of 7 min. The regeneration of the surfaces was performed, when necessary, by 10 mM of NaOH. The Langmuir model of the Scrubber2 software was used to determine the equilibrium dissociation constant and kinetic dissociation and association constants.

[6] = biological target: T2, METTL3-14 complex; assay: Mass spectrometry based METTL3-14 enzyme based assay (m^6A level of single strand RNA substrate); assay type: biochemical; details: read-out: IC50, METTL3-14 inhibition, mass spectrometric enzyme based assay
Description: The 30 nM of METTL3-14 was incubated with 300 nM of SAM, 300 nM of RNA substrates, and serially diluted compounds at 23 °C for 1 h as described above. The enzymatic reaction was stopped by heating at 80 °C for 10 min and centrifuged at 15,000× g for 10 min. Then, the reacted RNA in the supernatant was digested to nucleosides by using 2 units of nuclease P1 (NEB, Ipswich, MA, USA) and dephosphorylated by using 1 unit of alkaline phosphatase (NEB) at 37 °C for 2 h.
The produced nucleosides were detected by reversed-phase high-performance liquid chromatography on an ACQUITY BEH C18 column ([…], 2.1 mm × 50 mm; Waters) coupled with mass spectrometry detection using an EVOQ Elite ER LC-TQ (Bruker, Billerica, MA, USA). The adenosine and m^6A were quantified using an MRM transition as follows: m/z = 267.9 -> 136.1 and m/z = 282.1 -> 150.1, respectively. (Retention time 5 min). The m^6A/A nucleoside ratio of the eltrombopag-treated sample was normalized to the corresponding value of the DMSO treated negative control. The IC50 values were calculated by a nonlinear regression analysis using OriginPro 9.1 software (OriginLab).

T2 sequence (Q86U44 whole entry, the tested form may be a part): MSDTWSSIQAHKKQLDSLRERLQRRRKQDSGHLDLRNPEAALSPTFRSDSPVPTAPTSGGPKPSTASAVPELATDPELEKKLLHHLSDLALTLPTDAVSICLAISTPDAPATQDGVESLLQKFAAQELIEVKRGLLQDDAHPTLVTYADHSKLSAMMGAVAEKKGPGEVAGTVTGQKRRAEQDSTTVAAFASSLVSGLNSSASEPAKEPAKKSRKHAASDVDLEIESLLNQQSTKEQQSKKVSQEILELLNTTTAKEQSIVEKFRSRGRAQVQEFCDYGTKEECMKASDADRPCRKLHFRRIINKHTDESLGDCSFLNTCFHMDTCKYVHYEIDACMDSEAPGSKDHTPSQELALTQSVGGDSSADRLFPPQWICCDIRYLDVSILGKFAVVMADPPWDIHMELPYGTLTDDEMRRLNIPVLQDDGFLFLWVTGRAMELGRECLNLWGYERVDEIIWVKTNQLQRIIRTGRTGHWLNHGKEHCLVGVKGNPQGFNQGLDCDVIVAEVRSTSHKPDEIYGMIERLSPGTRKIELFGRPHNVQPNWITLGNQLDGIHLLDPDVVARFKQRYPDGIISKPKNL
T2 sequence (Q9HCE5 whole entry partner, the tested form may be a part): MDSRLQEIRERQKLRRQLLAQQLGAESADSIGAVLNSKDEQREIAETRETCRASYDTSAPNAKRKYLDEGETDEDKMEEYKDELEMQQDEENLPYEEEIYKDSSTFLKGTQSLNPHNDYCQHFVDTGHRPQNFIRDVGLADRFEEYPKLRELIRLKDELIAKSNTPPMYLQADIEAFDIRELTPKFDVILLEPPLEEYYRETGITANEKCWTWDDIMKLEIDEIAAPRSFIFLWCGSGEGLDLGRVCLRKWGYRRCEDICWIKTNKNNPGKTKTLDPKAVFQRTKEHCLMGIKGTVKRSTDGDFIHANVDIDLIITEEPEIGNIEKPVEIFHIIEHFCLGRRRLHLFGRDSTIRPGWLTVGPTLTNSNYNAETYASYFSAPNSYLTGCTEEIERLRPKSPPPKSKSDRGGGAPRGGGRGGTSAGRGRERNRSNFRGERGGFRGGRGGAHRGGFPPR
T1 sequence (Q86U44 whole entry): as the sequence (Q86U44 whole entry, the tested form may be a part) above

CC1=NN(c2ccc(C)c(C)c2)C(=O)/C1=N\Nc1cccc(-c2cccc(C(=O)O)c2)c1O [Eltrombopag]
IC50 [1]: 7.04 µM | water solubility [2]: low | GI50 [3]: 8.28 µM | number of differential m^6A methylation sites ([4]; MOLM-13, 25 μM eltrombopag): 10,723 | share of differential m^6A sites hypomethylated ([4]; MOLM-13, 25 μM eltrombopag): 71% | share of hypermethylation ([4]; MOLM-13, 25 μM eltrombopag): about 30% | share of hypomethylated genes that are noncoding-RNA (ncRNA) ([4]; eltrombopag-treated MOLM-13): 17% | share of hypomethylated genes that are protein-coding ([4]; eltrombopag-treated MOLM-13): ~ 80% | share of hypomethylated genes that are pseudogenes ([4]; eltrombopag-treated MOLM-13): 3% | Ka (kinetic association constant) [5]: 492(4) | Kd ([5]; Langmuir model, read-out: KD (equilibrium dissociation constant)): 13.2 µM | IC50 [6]: 4.55 µM
